Source: ChEMBL document CHEMBL5724914, “Linking interpersonal differences in gut microbiota composition and drug biotransformation activity” (2024)

Columns and labels:
[1] = human gut metagenome, 24 h, 2 µM
[2] = human gut metagenome, 24 h, 2 µM; remark: listed apart in the source
[3] = (§1) The drug is tested on WLS-038 corresponding to human gut metagenome with ENA study accession number: PRJEB37062 and ENA sample accession number: ERS12561745 for biotransformation under anaerobic condition. The drug concentrations were measured over 9 timepoints collected between 0 and 24 hours of incubation by liquid-chromatography-coupled mass spectrometry (LC–MS); settings: 2 µM
[4] = as §1, with “WLS-370” for “WLS-038”, “ERS12561793” for “ERS12561745”; settings: 2 µM
[5] = as §1, with “Z-020” for “WLS-038”, “rabbit” for “human”, “ERS12561819” for “ERS12561745”; settings: 2 µM
[6] = human gut metagenome, 24 h, 2 µM; remark: listed apart in the source
[7] = human gut metagenome, 24 h, 2 µM; remark: listed apart in the source
[8] = human gut metagenome, 24 h, 2 µM; remark: listed apart in the source
[9] = as §1, with “Z-009” for “WLS-038”, “pig” for “human”, “ERS12561809” for “ERS12561745”; settings: 2 µM
[10] = as §1, with “WLS-098” for “WLS-038”, “ERS12561754” for “ERS12561745”; settings: 2 µM
[11] = human gut metagenome, 24 h, 2 µM; remark: listed apart in the source
[12] = human gut metagenome, 24 h, 2 µM; remark: listed apart in the source
[13] = human gut metagenome, 24 h, 2 µM; remark: listed apart in the source
[14] = human gut metagenome, 24 h, 2 µM; remark: listed apart in the source
[15] = as §1, with “WLS-090” for “WLS-038”, “ERS12561753” for “ERS12561745”; settings: 2 µM
[16] = human gut metagenome, 24 h, 2 µM; remark: listed apart in the source
[17] = as §1, with “Z-003” for “WLS-038”, “pig” for “human”, “ERS12561803” for “ERS12561745”; settings: 2 µM
[18] = human gut metagenome, 24 h, 2 µM; remark: listed apart in the source
[19] = as §1, with “Z-005” for “WLS-038”, “to” for “to human gut”, “ERS12561805” for “ERS12561745”; settings: 2 µM
[20] = human gut metagenome, 24 h, 2 µM; remark: listed apart in the source
Note: call rule not given here.

Structure (SMILES)	Bacterial Biotransformation [1]	Bacterial Biotransformation [2]	Bacterial Biotransformation [3]	Bacterial Biotransformation [4]	Bacterial Biotransformation [5]	Bacterial Biotransformation [6]	Bacterial Biotransformation [7]	Bacterial Biotransformation [8]	Bacterial Biotransformation [9]	Bacterial Biotransformation [10]	Bacterial Biotransformation [11]	Bacterial Biotransformation [12]	Bacterial Biotransformation [13]	Bacterial Biotransformation [14]	Bacterial Biotransformation [15]	Bacterial Biotransformation [16]	Bacterial Biotransformation [17]	Bacterial Biotransformation [18]	Bacterial Biotransformation [19]	Bacterial Biotransformation [20]
CN(C)CCOC(C)(c1ccccc1)c1ccccn1.O=C(O)CCC(=O)O (stereo not given) [DOXYLAMINE SUCCINATE]	Compound NOT metabolized	Compound NOT metabolized	Compound NOT metabolized	Compound NOT metabolized	Compound NOT metabolized	Compound NOT metabolized	Compound NOT metabolized	Compound NOT metabolized	Compound NOT metabolized	Compound NOT metabolized	Compound NOT metabolized	Compound NOT metabolized	Compound NOT metabolized	Compound NOT metabolized	Compound NOT metabolized	Compound NOT metabolized	Compound NOT metabolized	Compound NOT metabolized	Compound NOT metabolized	Compound NOT metabolized
Br.CN1CCC[C@@H]1Cc1c[nH]c2ccc(CCS(=O)(=O)c3ccccc3)cc12 [ELETRIPTAN HYDROBROMIDE]	Compound NOT metabolized	Compound NOT metabolized	Compound NOT metabolized	Compound NOT metabolized	Compound NOT metabolized	Compound metabolized	Compound NOT metabolized	Compound NOT metabolized	Compound NOT metabolized	Compound metabolized	Compound NOT metabolized	Compound metabolized	Compound NOT metabolized	Compound NOT metabolized	Compound metabolized	Compound metabolized	Compound NOT metabolized	Compound metabolized	Compound NOT metabolized	Compound metabolized
CCOc1ccc2nc(S(N)(=O)=O)sc2c1 [ETHOXZOLAMIDE]	Compound NOT metabolized	Compound NOT metabolized	Compound NOT metabolized	Compound NOT metabolized	Compound NOT metabolized	Compound NOT metabolized	Compound NOT metabolized	Compound NOT metabolized	Compound NOT metabolized	Compound metabolized	Compound NOT metabolized	Compound metabolized	Compound NOT metabolized	Compound NOT metabolized	Compound metabolized	Compound NOT metabolized	Compound NOT metabolized	Compound NOT metabolized	Compound NOT metabolized	Compound metabolized
CCc1cccc2c3c([nH]c12)C(CC)(CC(=O)O)OCC3 (stereo not given) [ETODOLAC]	Compound metabolized	Compound NOT metabolized	Compound metabolized	Compound metabolized	Compound NOT metabolized	Compound metabolized	Compound metabolized	Compound NOT metabolized	Compound NOT metabolized	Compound metabolized	Compound NOT metabolized	Compound metabolized	Compound metabolized	Compound NOT metabolized	Compound metabolized	Compound metabolized	Compound NOT metabolized	Compound metabolized	Compound NOT metabolized	Compound metabolized
CC(=O)OCC(CCn1cnc2cnc(N)nc21)COC(C)=O [FAMCICLOVIR]	Compound metabolized	Compound metabolized	Compound metabolized	Compound metabolized	Compound metabolized	Compound metabolized	Compound metabolized	Compound metabolized	Compound metabolized	Compound metabolized	Compound metabolized	Compound metabolized	Compound metabolized	Compound NOT metabolized	Compound metabolized	Compound metabolized	Compound metabolized	Compound metabolized	Compound metabolized	Compound metabolized
CC(C)(C)NC(=O)[C@H]1CC[C@H]2[C@@H]3CC[C@H]4NC(=O)C=C[C@]4(C)[C@H]3CC[C@]12C [FINASTERIDE]	Compound metabolized	Compound metabolized	Compound metabolized	Compound metabolized	Compound metabolized	Compound metabolized	Compound metabolized	Compound NOT metabolized	Compound metabolized	Compound metabolized	Compound metabolized	Compound metabolized	Compound metabolized	Compound NOT metabolized	Compound metabolized	Compound metabolized	Compound metabolized	Compound metabolized	Compound metabolized	Compound metabolized
CC1Cc2ccccc2N1NC(=O)c1ccc(Cl)c(S(N)(=O)=O)c1 (stereo not given) [INDAPAMIDE]	Compound NOT metabolized	Compound NOT metabolized	Compound NOT metabolized	Compound NOT metabolized	Compound NOT metabolized	Compound NOT metabolized	Compound NOT metabolized	Compound NOT metabolized	Compound NOT metabolized	Compound NOT metabolized	Compound NOT metabolized	Compound NOT metabolized	Compound NOT metabolized	Compound NOT metabolized	Compound NOT metabolized	Compound NOT metabolized	Compound NOT metabolized	Compound NOT metabolized	Compound NOT metabolized	Compound NOT metabolized
COc1ccc2c(c1)c(CC(=O)O)c(C)n2C(=O)c1ccc(Cl)cc1 [INDOMETHACIN]	Compound metabolized	Compound metabolized	Compound metabolized	Compound metabolized	Compound metabolized	Compound metabolized	Compound metabolized	Compound metabolized	Compound NOT metabolized	Compound metabolized	Compound NOT metabolized	Compound metabolized	Compound metabolized	Compound NOT metabolized	Compound metabolized	Compound metabolized	Compound NOT metabolized	Compound metabolized	Compound NOT metabolized	Compound metabolized
CC(CCc1ccccc1)NCC(O)c1ccc(O)c(C(N)=O)c1 (stereo not given) [LABETALOL]	Compound NOT metabolized	Compound NOT metabolized	Compound NOT metabolized	Compound NOT metabolized	Compound NOT metabolized	Compound metabolized	Compound NOT metabolized	Compound NOT metabolized	Compound NOT metabolized	Compound NOT metabolized	Compound NOT metabolized	Compound NOT metabolized	Compound NOT metabolized	Compound NOT metabolized	Compound metabolized	Compound NOT metabolized	Compound NOT metabolized	Compound NOT metabolized	Compound NOT metabolized	Compound metabolized
